Measured values as given in the supplement of paper PMC10307832.

compound: Cc1ccc2nc(NCCN)c3ncc(C)n3c2c1 + CC(C)C[C@H](NC(=O)[C@H](Cc1ccccc1)NC(=O)c1cnccn1)B(O)O [Bortezomib] (partner 0.002 µM); assay: relative viability (nuclei count vs DMSO), 5 days (fraction); higher = more cells survive; settings: first compound 0.04 µM
Procedure, shortened: (§1)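 Lung cancer cell lines were pin-tool dosed in 1536-well plates on the day after seeding, with either a lone drug or a fixed anchor-drug dose plus five library-drug doses (not always all listed) in √10 steps. Nuclei were counted on 4× images after 5 days. Relative viability is the ratio of treated-well to vehicle-well nuclei counts, with each value a median of duplicate plates.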

For LC-2-ad, which relative viability is on record?
The relative viability was 1.06.

NCI-H1975 was tested. Which relative viability did it give?
The relative viability was 0.363.

For RERF-LC-KJ, which relative viability is on record?
The relative viability was 1.19.

With NCI-H650 as the cell line, how does the relative viability read?
The relative viability was 0.863.

How did the relative viability turn out when PC-3 [JPC-3] was run?
Its relative viability is 0.863.

same assay, conditions: first compound 0.1265 µM

How did the relative viability turn out when LC-2-ad was run?
Its relative viability is 0.978.

NCI-H1975 was tested. Which relative viability did it give?
The relative viability was 0.384.

How did the relative viability turn out when RERF-LC-KJ was run?
The relative viability was 0.968.

For NCI-H650, which relative viability is on record?
Its relative viability is 0.673.

PC-3 [JPC-3] was tested. Which relative viability did it give?
The relative viability was 0.893.

same assay, conditions: first compound 0.4 µM

Which relative viability does the source give for LC-2-ad here?
Its relative viability is 1.

How did the relative viability turn out when NCI-H1975 was run?
The relative viability was 0.428.

How did the relative viability turn out when RERF-LC-KJ was run?
Its relative viability is 1.11.

How did the relative viability turn out when NCI-H650 was run?
Its relative viability is 0.73.

For PC-3 [JPC-3], which relative viability is on record?
Its relative viability is 0.723.

same assay, conditions: first compound 1.265 µM

For LC-2-ad, which relative viability is on record?
Its relative viability is 1.02.

For NCI-H1975, which relative viability is on record?
The relative viability was 0.375.

RERF-LC-KJ was tested. Which relative viability did it give?
The relative viability was 1.07.

With NCI-H650 as the cell line, how does the relative viability read?
Its relative viability is 0.859.

With PC-3 [JPC-3] as the cell line, how does the relative viability read?
The relative viability was 0.842.

same assay, conditions: first compound 4 µM

LC-2-ad was tested. Which relative viability did it give?
Its relative viability is 0.81.

For NCI-H1975, which relative viability is on record?
The relative viability was 0.407.

Which relative viability does the source give for RERF-LC-KJ here?
Its relative viability is 0.983.

For NCI-H650, which relative viability is on record?
The relative viability was 0.621.

Which relative viability does the source give for PC-3 [JPC-3] here?
The relative viability was 0.707.

compound: O=C(/C=C/c1ccccc1)NC(NC(=S)Nc1cccc2cccnc12)C(Cl)(Cl)Cl [Salubrinal] + C[C@@H](Oc1cc(-c2cnn(C3CCNCC3)c2)cnc1N)c1c(Cl)ccc(F)c1Cl [Crizotinib] (partner 1 µM); assay: as above; settings: first compound 0.08 µM
Procedure, shortened: as §1

LC-2-ad was tested. Which relative viability did it give?
Its relative viability is 0.447.

Which relative viability does the source give for NCI-H1975 here?
The relative viability was 1.07.

Which relative viability does the source give for RERF-LC-KJ here?
The relative viability was 0.81.

How did the relative viability turn out when NCI-H650 was run?
Its relative viability is 0.701.

How did the relative viability turn out when PC-3 [JPC-3] was run?
The relative viability was 1.08.

same assay, conditions: first compound 0.253 µM

With LC-2-ad as the cell line, how does the relative viability read?
The relative viability was 0.385.

For NCI-H1975, which relative viability is on record?
Its relative viability is 0.722.

RERF-LC-KJ was tested. Which relative viability did it give?
The relative viability was 0.718.

NCI-H650 was tested. Which relative viability did it give?
The relative viability was 0.656.

With PC-3 [JPC-3] as the cell line, how does the relative viability read?
Its relative viability is 0.679.

same assay, conditions: first compound 0.8 µM

How did the relative viability turn out when LC-2-ad was run?
The relative viability was 0.537.

With NCI-H1975 as the cell line, how does the relative viability read?
The relative viability was 1.06.

RERF-LC-KJ was tested. Which relative viability did it give?
The relative viability was 0.803.

How did the relative viability turn out when NCI-H650 was run?
The relative viability was 0.792.

PC-3 [JPC-3] was tested. Which relative viability did it give?
Its relative viability is 1.11.

same assay, conditions: first compound 2.53 µM

How did the relative viability turn out when LC-2-ad was run?
Its relative viability is 0.471.

NCI-H1975 was tested. Which relative viability did it give?
Its relative viability is 0.992.

With RERF-LC-KJ as the cell line, how does the relative viability read?
The relative viability was 0.806.

Which relative viability does the source give for NCI-H650 here?
Its relative viability is 0.637.

How did the relative viability turn out when PC-3 [JPC-3] was run?
Its relative viability is 0.976.

same assay, conditions: first compound 8 µM

How did the relative viability turn out when LC-2-ad was run?
Its relative viability is 0.459.

NCI-H1975 was tested. Which relative viability did it give?
Its relative viability is 0.816.

With RERF-LC-KJ as the cell line, how does the relative viability read?
Its relative viability is 0.887.

With NCI-H650 as the cell line, how does the relative viability read?
The relative viability was 0.765.

For PC-3 [JPC-3], which relative viability is on record?
Its relative viability is 0.997.

compound: Cc1ccc2nc(NCCN)c3ncc(C)n3c2c1 + Nc1ncn([C@H]2C[C@H](O)[C@@H](CO)O2)c(=O)n1 [Decitabine] (partner 2 µM); assay: as above; settings: first compound 0.04 µM
Procedure, shortened: as §1

Which relative viability does the source give for LC-2-ad here?
Its relative viability is 0.728.

For NCI-H1975, which relative viability is on record?
Its relative viability is 0.384.

With RERF-LC-KJ as the cell line, how does the relative viability read?
Its relative viability is 0.63.

How did the relative viability turn out when NCI-H650 was run?
The relative viability was 0.332.

With PC-3 [JPC-3] as the cell line, how does the relative viability read?
Its relative viability is 0.831.

same assay, conditions: first compound 0.1265 µM

LC-2-ad was tested. Which relative viability did it give?
Its relative viability is 0.728.

Which relative viability does the source give for NCI-H1975 here?
The relative viability was 0.394.

With RERF-LC-KJ as the cell line, how does the relative viability read?
The relative viability was 0.709.

For NCI-H650, which relative viability is on record?
The relative viability was 0.326.

With PC-3 [JPC-3] as the cell line, how does the relative viability read?
Its relative viability is 0.889.

same assay, conditions: first compound 0.4 µM

For LC-2-ad, which relative viability is on record?
Its relative viability is 0.705.

How did the relative viability turn out when NCI-H1975 was run?
Its relative viability is 0.405.

How did the relative viability turn out when RERF-LC-KJ was run?
The relative viability was 0.684.

With NCI-H650 as the cell line, how does the relative viability read?
The relative viability was 0.31.

PC-3 [JPC-3] was tested. Which relative viability did it give?
The relative viability was 0.854.

same assay, conditions: first compound 1.265 µM

With LC-2-ad as the cell line, how does the relative viability read?
Its relative viability is 0.712.

NCI-H1975 was tested. Which relative viability did it give?
Its relative viability is 0.455.

RERF-LC-KJ was tested. Which relative viability did it give?
The relative viability was 0.765.

With NCI-H650 as the cell line, how does the relative viability read?
The relative viability was 0.269.

PC-3 [JPC-3] was tested. Which relative viability did it give?
The relative viability was 0.846.

same assay, conditions: first compound 4 µM

Which relative viability does the source give for LC-2-ad here?
Its relative viability is 0.768.

With NCI-H1975 as the cell line, how does the relative viability read?
Its relative viability is 0.403.

How did the relative viability turn out when RERF-LC-KJ was run?
The relative viability was 0.616.

NCI-H650 was tested. Which relative viability did it give?
Its relative viability is 0.331.

For PC-3 [JPC-3], which relative viability is on record?
Its relative viability is 0.761.

compound: Cc1ccc2nc(NCCN)c3ncc(C)n3c2c1 + CC(=O)Nc1cccc(-n2c(=O)n(C3CC3)c(=O)c3c(Nc4ccc(I)cc4F)n(C)c(=O)c(C)c32)c1 [Trametinib] (partner 0.02 µM); assay: as above; settings: first compound 0.04 µM
Procedure, shortened: as §1

LC-2-ad was tested. Which relative viability did it give?
The relative viability was 0.927.

NCI-H1975 was tested. Which relative viability did it give?
Its relative viability is 0.329.

How did the relative viability turn out when RERF-LC-KJ was run?
The relative viability was 0.857.

How did the relative viability turn out when NCI-H650 was run?
The relative viability was 1.03.

For PC-3 [JPC-3], which relative viability is on record?
Its relative viability is 0.656.

same assay, conditions: first compound 0.1265 µM

With LC-2-ad as the cell line, how does the relative viability read?
The relative viability was 0.963.

Which relative viability does the source give for NCI-H1975 here?
The relative viability was 0.376.

RERF-LC-KJ was tested. Which relative viability did it give?
Its relative viability is 0.805.

NCI-H650 was tested. Which relative viability did it give?
The relative viability was 0.911.

Which relative viability does the source give for PC-3 [JPC-3] here?
Its relative viability is 0.738.

same assay, conditions: first compound 0.4 µM

How did the relative viability turn out when LC-2-ad was run?
The relative viability was 0.881.

Which relative viability does the source give for NCI-H1975 here?
Its relative viability is 0.369.

For RERF-LC-KJ, which relative viability is on record?
The relative viability was 0.888.

Which relative viability does the source give for NCI-H650 here?
The relative viability was 1.07.

How did the relative viability turn out when PC-3 [JPC-3] was run?
The relative viability was 0.62.

same assay, conditions: first compound 1.265 µM

How did the relative viability turn out when LC-2-ad was run?
Its relative viability is 0.965.

Which relative viability does the source give for NCI-H1975 here?
Its relative viability is 0.329.

Which relative viability does the source give for RERF-LC-KJ here?
The relative viability was 0.86.

Which relative viability does the source give for NCI-H650 here?
Its relative viability is 0.955.

How did the relative viability turn out when PC-3 [JPC-3] was run?
The relative viability was 0.601.

same assay, conditions: first compound 4 µM

Which relative viability does the source give for LC-2-ad here?
The relative viability was 0.86.

How did the relative viability turn out when NCI-H1975 was run?
The relative viability was 0.321.

How did the relative viability turn out when RERF-LC-KJ was run?
Its relative viability is 0.828.

How did the relative viability turn out when NCI-H650 was run?
The relative viability was 0.864.

PC-3 [JPC-3] was tested. Which relative viability did it give?
The relative viability was 0.529.
